Measurements taken from ChEMBL document CHEMBL3044615, “Synthesis and in vitro antimicrobial activity of benzo[b][1,4]thiazin-3(4H)-ones via smiles rearrangement” (2011).
≈ marks a conversion by molar mass, not a printed value. Calls of active or inactive are those of the source. The rule behind the calls is not given here.

Tests used:
Format in all cases: functional
Pseudomonas aeruginosa = experiment: Antibacterial activity against Pseudomonas aeruginosa ATCC 27853 after 24 hr by two-fold microdilution technique; conditions: ATCC 27853, 24 h
Proteus vulgaris = experiment: Antibacterial activity against Proteus vulgaris ATCC 6896 after 24 hr by two-fold microdilution technique; conditions: ATCC 6896, 24 h
Micrococcus luteus = experiment: Antibacterial activity against Micrococcus luteus NCTC 2665 after 24 hr by two-fold microdilution technique; conditions: NCTC 2665, 24 h
Staphylococcus aureus = experiment: Antibacterial activity against Staphylococcus aureus ATCC 25923 after 24 hr by two fold microdilution technique; conditions: ATCC 25923, 24 h
Saccharomyces cerevisiae = experiment: Microbiostatic activity against Saccharomyces cerevisiae ATCC 74212 after 48 hr by two fold microdilution technique
Bacillus subtilis = experiment: Antibacterial activity against Bacillus subtilis ATCC 6633 after 24 hr by two fold microdilution technique; conditions: ATCC 6633, 24 h
Escherichia coli = experiment: Antibacterial activity against Escherichia coli ATCC 25922 after 24 hr by two-fold microdilution technique; conditions: ATCC 25922, 24 h
Candida albicans = experiment: Microbiostatic activity against Candida albicans ATCC 76615 after 48 hr by two-fold microdilution technique

SMILES | MIC (Pseudomonas aeruginosa) | MIC (Proteus vulgaris) | MIC (Micrococcus luteus) | MIC (Staphylococcus aureus) | MIC (Saccharomyces cerevisiae) | MIC (Bacillus subtilis) | MIC (Escherichia coli) | MIC (Candida albicans) | MIC (Saccharomyces cerevisiae; ATCC 74212, 48 h) | MIC (Candida albicans; ATCC 76615, 48 h)
O=C1CSc2cc(Cl)ccc2N1Cc1ccccc1 | 64 µg/mL (≈ 221 µM) | 32 µg/mL (≈ 110 µM) | 16 µg/mL (≈ 55.2 µM) | 64 µg/mL (≈ 221 µM) | inactive | 64 µg/mL (≈ 221 µM) | 32 µg/mL (≈ 110 µM) | inactive |  | 
Clc1ccccc1C(c1ccccc1)(c1ccccc1)n1ccnc1 [CLOTRIMAZOLE] | 512 µg/mL (≈ 1480 µM) | 512 µg/mL (≈ 1480 µM) | 512 µg/mL (≈ 1480 µM) | 512 µg/mL (≈ 1480 µM) |  | 512 µg/mL (≈ 1480 µM) | 512 µg/mL (≈ 1480 µM) |  | 4 µg/mL (≈ 11.6 µM) | 2 µg/mL (≈ 5.8 µM)
O=C1CSc2c(Cl)cccc2N1CC1CCCO1 (stereo not given) | 128 µg/mL (≈ 451 µM) | 64 µg/mL (≈ 226 µM) | 32 µg/mL (≈ 113 µM) | 32 µg/mL (≈ 113 µM) |  | 16 µg/mL (≈ 56.4 µM) | 64 µg/mL (≈ 226 µM) |  | 128 µg/mL (≈ 451 µM) | 128 µg/mL (≈ 451 µM)
CCCCCCN1C(=O)CSc2ccc(Cl)cc21 | 64 µg/mL (≈ 225 µM) | 32 µg/mL (≈ 113 µM) | 16 µg/mL (≈ 56.4 µM) | 32 µg/mL (≈ 113 µM) | inactive | 32 µg/mL (≈ 113 µM) | 32 µg/mL (≈ 113 µM) | inactive |  | 
CCCCCCN1C(=O)CSc2c(Cl)cccc21 | 32 µg/mL (≈ 113 µM) | 16 µg/mL (≈ 56.4 µM) | 32 µg/mL (≈ 113 µM) | 32 µg/mL (≈ 113 µM) |  | 16 µg/mL (≈ 56.4 µM) | 32 µg/mL (≈ 113 µM) |  | 64 µg/mL (≈ 225 µM) | 64 µg/mL (≈ 225 µM)
O=C1CSc2cc(Cl)ccc2N1CC1CCCO1 (stereo not given) | 64 µg/mL (≈ 226 µM) | 32 µg/mL (≈ 113 µM) | 16 µg/mL (≈ 56.4 µM) | 32 µg/mL (≈ 113 µM) |  | 64 µg/mL (≈ 226 µM) | 32 µg/mL (≈ 113 µM) |  | 128 µg/mL (≈ 451 µM) | 128 µg/mL (≈ 451 µM)
O=C1CSc2ccc(Cl)cc2N1CC1CCCO1 (stereo not given) | 128 µg/mL (≈ 451 µM) | 64 µg/mL (≈ 226 µM) | 32 µg/mL (≈ 113 µM) | 64 µg/mL (≈ 226 µM) |  | 32 µg/mL (≈ 113 µM) | 64 µg/mL (≈ 226 µM) |  | 128 µg/mL (≈ 451 µM) | 64 µg/mL (≈ 226 µM)
O=C1CSc2c(Cl)cccc2N1C1CCCCC1 | 64 µg/mL (≈ 227 µM) | 32 µg/mL (≈ 114 µM) | 32 µg/mL (≈ 114 µM) | 16 µg/mL (≈ 56.8 µM) |  | 32 µg/mL (≈ 114 µM) | 32 µg/mL (≈ 114 µM) |  | 64 µg/mL (≈ 227 µM) | 128 µg/mL (≈ 454 µM)
O=C1CSc2ccc(Cl)cc2N1Cc1ccccc1 | 32 µg/mL (≈ 110 µM) | 32 µg/mL (≈ 110 µM) | 16 µg/mL (≈ 55.2 µM) | 16 µg/mL (≈ 55.2 µM) |  | 32 µg/mL (≈ 110 µM) | 32 µg/mL (≈ 110 µM) |  | 64 µg/mL (≈ 221 µM) | 64 µg/mL (≈ 221 µM)
O=C1CSc2c(Cl)cccc2N1Cc1ccccc1 | 32 µg/mL (≈ 110 µM) | 64 µg/mL (≈ 221 µM) | 32 µg/mL (≈ 110 µM) | 64 µg/mL (≈ 221 µM) |  | 64 µg/mL (≈ 221 µM) | 64 µg/mL (≈ 221 µM) |  | 64 µg/mL (≈ 221 µM) | 128 µg/mL (≈ 442 µM)
CC1(C)S[C@@H]2[C@H](NC(=O)[C@H](N)c3ccccc3)C(=O)N2[C@H]1C(=O)O [AMPICILLIN] | 128 µg/mL (≈ 366 µM) | 16 µg/mL (≈ 45.8 µM) | 16 µg/mL (≈ 45.8 µM) | 2 µg/mL (≈ 5.72 µM) | inactive | 1 µg/mL (≈ 2.86 µM) | 16 µg/mL (≈ 45.8 µM) | inactive |  | 
O=C1CSc2cc(Cl)ccc2N1C1CCCCC1 | 32 µg/mL (≈ 114 µM) | 32 µg/mL (≈ 114 µM) | 16 µg/mL (≈ 56.8 µM) | 16 µg/mL (≈ 56.8 µM) |  | 32 µg/mL (≈ 114 µM) | 32 µg/mL (≈ 114 µM) |  | 128 µg/mL (≈ 454 µM) | 64 µg/mL (≈ 227 µM)
O=C1CSc2cccc(Cl)c2N1C1CCCCC1 | 32 µg/mL (≈ 114 µM) | 32 µg/mL (≈ 114 µM) | 16 µg/mL (≈ 56.8 µM) | 16 µg/mL (≈ 56.8 µM) |  | 32 µg/mL (≈ 114 µM) | 32 µg/mL (≈ 114 µM) |  | 128 µg/mL (≈ 454 µM) | 64 µg/mL (≈ 227 µM)
CN[C@@H]1[C@H](O[C@H]2[C@H](O[C@H]3[C@H](O)[C@@H](O)[C@H](N=C(N)N)[C@@H](O)[C@@H]3N=C(N)N)O[C@@H](C)[C@]2(O)C=O)O[C@@H](CO)[C@H](O)[C@H]1O [STREPTOMYCIN] | 2 µg/mL (≈ 3.44 µM) | 4 µg/mL (≈ 6.88 µM) | 8 µg/mL (≈ 13.8 µM) | 2 µg/mL (≈ 3.44 µM) | inactive | 32 µg/mL (≈ 55 µM) | 4 µg/mL (≈ 6.88 µM) | inactive |  | 
O=C1CSc2ccc(Cl)cc2N1C1CCCCC1 | 128 µg/mL (≈ 454 µM) | 64 µg/mL (≈ 227 µM) | 32 µg/mL (≈ 114 µM) | 32 µg/mL (≈ 114 µM) | inactive | 64 µg/mL (≈ 227 µM) | 64 µg/mL (≈ 227 µM) |  |  | 256 µg/mL (≈ 908 µM)
CCCCCCN1C(=O)CSc2cc(Cl)ccc21 | 64 µg/mL (≈ 225 µM) | 64 µg/mL (≈ 225 µM) | 64 µg/mL (≈ 225 µM) | 32 µg/mL (≈ 113 µM) |  | 32 µg/mL (≈ 113 µM) | 32 µg/mL (≈ 113 µM) |  | 256 µg/mL (≈ 902 µM) | 128 µg/mL (≈ 451 µM)
CCCCCCN1C(=O)CSc2cccc(Cl)c21 | 64 µg/mL (≈ 225 µM) | 32 µg/mL (≈ 113 µM) | 32 µg/mL (≈ 113 µM) | 32 µg/mL (≈ 113 µM) | inactive | 32 µg/mL (≈ 113 µM) | 32 µg/mL (≈ 113 µM) | inactive |  | 
CC(C)(O/N=C(\C(=O)N[C@@H]1C(=O)N2C(C(=O)[O-])=C(C[n+]3ccccc3)CS[C@H]12)c1csc(N)n1)C(=O)O [CEFTAZIDIME] | 128 µg/mL (≈ 234 µM) | 4 µg/mL (≈ 7.32 µM) | 16 µg/mL (≈ 29.3 µM) | 4 µg/mL (≈ 7.32 µM) | inactive | 2 µg/mL (≈ 3.66 µM) | 4 µg/mL (≈ 7.32 µM) | inactive |  | 
O=C1CSc2cccc(Cl)c2N1Cc1ccccc1 | 32 µg/mL (≈ 110 µM) | 64 µg/mL (≈ 221 µM) | 32 µg/mL (≈ 110 µM) | 32 µg/mL (≈ 110 µM) |  | 32 µg/mL (≈ 110 µM) | 16 µg/mL (≈ 55.2 µM) | inactive | 128 µg/mL (≈ 442 µM) | 
O=C1CSc2cccc(Cl)c2N1CC1CCCO1 (stereo not given) | 64 µg/mL (≈ 226 µM) | 32 µg/mL (≈ 113 µM) | 32 µg/mL (≈ 113 µM) | 32 µg/mL (≈ 113 µM) |  | 32 µg/mL (≈ 113 µM) | 32 µg/mL (≈ 113 µM) |  | 128 µg/mL (≈ 451 µM) | 64 µg/mL (≈ 226 µM)
